What was measured:
rat ASIC3 = target: T1, rat ASIC3 (Rattus norvegicus, UniProt O35240); experiment: Two-electrode voltage clamp on X. laevis oocytes expressing rat ASIC3; format: cell-based
T1 construct: expressed in transfected cells; host or cells: Xenopus laevis oocytes (cRNA injection)
T1 sequence (O35240 1-533): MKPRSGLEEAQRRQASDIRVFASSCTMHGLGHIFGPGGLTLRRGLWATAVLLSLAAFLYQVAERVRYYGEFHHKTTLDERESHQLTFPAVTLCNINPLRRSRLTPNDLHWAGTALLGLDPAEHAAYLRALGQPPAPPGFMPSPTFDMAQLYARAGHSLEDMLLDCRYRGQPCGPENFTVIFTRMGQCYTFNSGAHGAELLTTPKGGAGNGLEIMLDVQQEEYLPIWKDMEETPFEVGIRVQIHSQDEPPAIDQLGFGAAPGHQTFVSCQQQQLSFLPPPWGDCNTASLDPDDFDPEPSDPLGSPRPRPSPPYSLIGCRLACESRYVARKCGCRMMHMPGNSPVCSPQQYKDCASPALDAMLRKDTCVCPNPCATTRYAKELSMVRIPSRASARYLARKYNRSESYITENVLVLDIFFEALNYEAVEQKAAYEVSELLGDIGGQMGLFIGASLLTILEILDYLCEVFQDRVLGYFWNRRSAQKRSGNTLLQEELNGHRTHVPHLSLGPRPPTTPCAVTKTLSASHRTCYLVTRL
Description: Testing the activity of synthetic sevanol (s706) (as a mixture of 75% of sevanol and 25% of isosevanol) and its analogues (s590, EA, and s788) was carried out by the standard two-electrode voltage clamp method on X. laevis oocytes expressing rat ASIC1a and ASIC3 channels. The activation of the channels was performed using a rapid change of the solution from conditioning pH 7.4 to a solution with pH 5.5. Sevanol and its two analogues, s590 and EA, inhibited ASIC1a and ASIC3 channels.
Oocytes were harvested from female frogs anaesthetized with tricaine methane sulfonate (MS222) (0.17% solution), and the surgery was performed in an ice bath to avoid heavy bleeding. Defolliculated stage IV and V cells were injected with 2.5 and 10 ng cRNA, synthesized from PCi plasmids containing the rat ASIC1a and rat ASIC3 isoforms, respectively, using the Nanoliter 2000 microinjection system (World Precision Instruments, USA). The injected oocytes were kept for 2–3 days at 17 to 19 °C, and then for up to 5 days at 15 °C in a ND96 medium containing (in mM) 96 NaCl, 2 KCl, 1.8 CaCl2, 1 MgCl2, and 5 HEPES titrated to pH 7.4 with NaOH supplemented with gentamycin (50 μg/mL). Two-electrode voltage clamp recordings were performed at a holding potential of −50 mV using a GeneClamp 500 amplifier (Axon Instruments), and the data were filtered at 20 Hz and digitized at 100 Hz by an AD converter L780 (LCard, Russia). Microelectrodes were filled with 3 M KCl. The conditioning bath solution was ND96; the pH was adjusted to 7.4. The activating test solution was constructed based on the ND-96 buffer, in which 5 mM HEPES was replaced with 10 mM MES and pH was adjusted to 5.5. A computer-controlled valve system was used to achieve a rapid solution exchange in the recording chamber. A four parameter logistic equation was used for the curve-fitting analysis: F(x) = ((a1 − a2)/(1 + (x/x0)n)) + a2, where x is the concentration of the compound; F(x) is the response value at a given concentration of the compound; a1 is the control response value (fixed at 100%); x0 is the IC50 value; n is the Hill coefficient (slope factor); and a2 is the response value at the maximal inhibition (% of control).
Figure 2 The inhibitory activity of sevanol (s706) and its analogues. Currents were elicited by a drop from pH 7.4 to 5.5; the holding potential was −50 mV; (A,C) are dose–response curves for s706, s590 and EA inhibitory effects on ASIC1a and ASIC3 channels, respectively; (B,D) are reciprocal IC50 values for s706, s590 and EA inhibitory effects on ASIC1a and ASIC3 channels, respectively. The data were fitted by the logistic equation. Each point is the mean ± SEM of 5–6 measurements. * p < 0.05, ** p < 0.005.

mice = system: mice; parameters: method as in PMID 30545037; conditions: parenteral, 0.01–10 mg/kg; cited from earlier work

SMILES: O=C(O)CC(C(=O)O)C(OC(=O)C1=Cc2cc(O)c(O)cc2C(c2ccc(O)c(O)c2)C1C(=O)OC(C(=O)O)C(CC(=O)O)C(=O)O)C(=O)O (stereo not shown) [sevanol]
- IC50 (rat ASIC3; X. laevis oocytes, pH drop 7.4 to 5.5, holding potential −50 mV, mean ± SEM of 5–6, read-out: IC50, inhibition of ASIC3 current): 175 ± 18 µM
- maximal current block, ASIC3 (rat ASIC3; pH 7.4 to 5.5, effect reversible): 100%
- effectiveness in inhibiting ASIC3 relative to ASIC1a (rat ASIC3; ratio of ASIC1a and ASIC3 inhibition): 1.3 times
- effect on acetic acid-induced writhing (mice): reduced the number of writhes

Source: publication PMC7466040, “Sevanol and Its Analogues: Chemical Synthesis, Biological Effects and Molecular Docking” (Pharmaceuticals, 2020)
